# Values joined by “and” are separate entries in the source; they are usually repeats but may differ in a detail not shown here. Equal entries are not always repeated.
row,Structure (SMILES),melting point
1,O=C(Cc1cccc(O)c1)NNC(=O)c1cc([N+](=O)[O-])cc([N+](=O)[O-])c1,248 to 249 °C
2,O=C(Cc1cccc(O)c1)NNC(=O)c1ccc(O)cc1O [compound 1],233 to 235 °C
3,O=C(Cc1cccc(O)c1)NNC(=O)c1ccc(OCc2ccccc2)cc1 [compound 2],199 to 200 °C
4,O=C(Cc1cccc(O)c1)NNC(=O)c1ccc(O)cc1 [compound 3],207 to 208 °C
5,O=C(Cc1cccc(O)c1)NNC(=O)c1cccc(OCc2ccccc2)c1 [compound 4],152 to 153 °C
6,O=C(Cc1cccc(O)c1)NNC(=O)c1ccccc1O [compound 5],214 to 215 °C
7,O=C(Cc1cccc(O)c1)NNC(=O)c1cccc(O)c1 [compound 6],224 to 225 °C
8,O=C(Cc1cccc(O)c1)NNC(=O)c1ccc(OCc2ccccc2)cc1Cl [compound 7],162 to 164 °C
9,O=C(Cc1cccc(O)c1)NNC(=O)c1ccc(O)cc1Cl [compound 8],165 to 166 °C
10,COc1cc(Cl)c(C(=O)NNC(=O)Cc2cccc(O)c2)cc1OC [compound 9],174 to 175 °C
11,COc1cc(I)c(C(=O)NNC(=O)Cc2cccc(O)c2)cc1OC [compound 10],199 to 200 °C
12,COc1cc(C(=O)NNC(=O)Cc2cccc(O)c2)c([N+](=O)[O-])cc1OC [compound 11],226 to 227 °C
13,COc1cc(F)c(C(=O)NNC(=O)Cc2cccc(O)c2)c(F)c1 [compound 12],198 to 199 °C
14,COc1ccc(C(=O)NNC(=O)Cc2cccc(O)c2)c(C)c1 [compound 13],171 to 172 °C
15,COc1cc(OCc2ccccc2)ccc1C(=O)NNC(=O)Cc1cccc(O)c1 [compound 14],193 to 194 °C
16,O=C(Cc1cccc(O)c1)NNC(=O)c1cc(Cl)ccc1Br [compound 15],212 to 213 °C
17,O=C(Cc1cccc(O)c1)NNC(=O)c1ccc(OC(F)(F)F)cc1 [compound 16],189 to 190 °C
18,COc1ccccc1C(=O)NNC(=O)Cc1cccc(O)c1 [compound 17],181 to 182 °C
19,Cc1cccc(C(=O)NNC(=O)Cc2cccc(O)c2)c1 [compound 18],156 to 157 °C
20,COC(=O)c1ccc(C(=O)NNC(=O)Cc2cccc(O)c2)cc1 [compound 19],201 to 202 °C
21,O=C(Cc1cccc(O)c1)NNC(=O)c1cccc([N+](=O)[O-])c1 [compound 20],179 °C

row,Structure (SMILES),melting point
1,O=C(Cc1cccc(O)c1)NNC(=O)c1ccccc1F [compound 21],154 to 155 °C
2,Cc1ccc(C(=O)NNC(=O)Cc2cccc(O)c2)cc1 [compound 22],175 to 176 °C
3,O=C(Cc1cccc(O)c1)NNC(=O)c1ccccc1Cl [compound 23],172 °C
4,O=C(Cc1cccc(O)c1)NNC(=O)c1cccc(Cl)c1 [compound 24],183 to 184 °C
5,O=C(Cc1cccc(O)c1)NNC(=O)c1ccc(Cl)cc1Cl [compound 25],202 to 203 °C
6,O=C(Cc1cccc(O)c1)NNC(=O)c1ccccc1I [compound 27],190 to 191 °C
7,O=C(Cc1cccc(O)c1)NNC(=O)c1ccc(Br)cc1 [compound 28],229 °C
8,COc1ccc(C(=O)NNC(=O)Cc2cccc(O)c2)c(OC)c1 [compound 29],197 to 198 °C
9,Cc1ccccc1C(=O)NNC(=O)Cc1cccc(O)c1 [compound 30],197 to 198 °C
10,O=C(Cc1cccc(O)c1)NNC(=O)c1ccc(F)cc1 [compound 31],182 to 183 °C
11,O=C(Cc1cccc(O)c1)NNC(=O)c1ccc2ccccc2c1 [compound 32],201 to 202 °C
12,O=C(Cc1cccc(O)c1)NNC(=O)c1cccc(Br)c1 [compound 33],194 to 195 °C
13,O=C(Cc1cccc(O)c1)NNC(=O)c1cccc2ccccc12 [compound 34],210 to 211 °C
14,COc1cc(O)ccc1C(=O)NNC(=O)Cc1cccc(O)c1 [compound 35],208 to 209 °C
15,COc1ccc(C(=O)NNC(=O)Cc2cccc(O)c2)cc1 [compound 36],158 to 159 °C
16,O=C(Cc1cccc(O)c1)NNC(=O)c1cccc(F)c1 [compound 37],176 to 177 °C
17,O=C(Cc1cccc(O)c1)NNC(=O)c1c(F)cccc1F [compound 38],191 to 192 °C
18,N#Cc1cccc(C(=O)NNC(=O)Cc2cccc(O)c2)c1 [compound 39],181.5 to 182.5 °C
19,O=C(Cc1cccc(O)c1)NNC(=O)c1cccc(Cl)c1Cl [compound 40],220 to 221 °C
20,O=C(Cc1cccc(O)c1)NNC(=O)c1ccc(F)c(F)c1 [compound 41],164 °C
21,CCOc1cccc(C(=O)NNC(=O)Cc2cccc(O)c2)c1 [compound 42],130 to 132 °C

row,Structure (SMILES),melting point
1,CC(C)(C)c1ccc(C(=O)NNC(=O)Cc2cccc(O)c2)cc1 [compound 43],183 to 184 °C
2,CCc1ccc(C(=O)NNC(=O)Cc2cccc(O)c2)cc1 [compound 44],155 to 156 °C
3,CCOc1ccc2ccccc2c1C(=O)NNC(=O)Cc1cccc(O)c1 [compound 45],148 to 150 °C
4,O=C(Cc1cccc(O)c1)NNC(=O)c1ccc(SC(F)(F)F)cc1 [compound 46],165 to 166 °C
5,O=C(Cc1cccc(O)c1)NNC(=O)c1ccccc1C(F)(F)F [compound 47],195 to 196 °C
6,O=C(Cc1cccc(O)c1)NNC(=O)c1cccc(OC(F)(F)F)c1 [compound 48],256 to 257 °C
7,O=C(Cc1cccc(O)c1)NNC(=O)c1ccccc1[N+](=O)[O-] [compound 49],206 to 207 °C
8,O=C(Cc1cccc(O)c1)NNC(=O)c1ccc(Cl)cc1 [compound 50],223 °C
9,O=C(Cc1cccc(O)c1)NNC(=O)c1ccccc1 [compound 51],162 to 163 °C
10,O=C(Cc1cccc(O)c1)NNC(=O)c1cccc(C(Cl)Cl)c1 [compound 52],154 to 155 °C
11,O=C(Cc1cccc(O)c1)NNC(=O)c1cccc(C(F)(F)F)c1 [compound 53],161 to 162 °C
12,O=C(Cc1cccc(O)c1)NNC(=O)c1ccc(CCl)cc1 [compound 54],175 to 176 °C
13,COc1cccc(C(=O)NNC(=O)Cc2cccc(O)c2)c1 [compound 55],138 to 139 °C
14,O=C(Cc1cccc(O)c1)NNC(=O)c1ccc([N+](=O)[O-])cc1 [compound 56],222 to 223 °C
15,Cc1cc(O)cc(O)c1C(=O)NNC(=O)Cc1cccc(O)c1 [compound 57],226 to 227 °C
16,Cc1cc(OCc2ccccc2)cc(OCc2ccccc2)c1C(=O)NNC(=O)Cc1cccc(O)c1 [compound 58],165 to 166 °C
17,"CCc1cc(OCc2ccccc2)ccc1C(=O)NNC(=O)Cc1cccc(O)c1 [compound 59, N′-[2-(3-hydroxyphenyl)acetyl]-4-benzyloxy-2-ethylbenzohydrazide]",190 to 191 °C
18,"CCc1cc(O)ccc1C(=O)NNC(=O)Cc1cccc(O)c1 [compound 60, N′-[2-(3-hydroxyphenyl)acetyl]-2-ethyl-4-hydroxybenzohydrazide]",199 to 200 °C
19,Cc1cc(O)c(C)c(O)c1C(=O)NNC(=O)Cc1cccc(O)c1 [compound 61],193 to 194 °C
20,CCc1cc(O)cc(O)c1C(=O)NNC(=O)Cc1cccc(O)c1 [compound 62],251 °C
21,O=C(Cc1cccc(O)c1)NNC(=O)c1c(O)cc(O)cc1Br [compound 63],226 to 227 °C

row,Structure (SMILES),melting point
1,O=C(Cc1cccc(O)c1)NNC(=O)c1c(Br)cc(OCc2ccccc2)cc1OCc1ccccc1 [compound 64],194 to 195 °C
2,COc1ccc(CC(=O)NNC(=O)c2c(C)cc(O)cc2O)cc1O [compound 66],232 to 233 °C
3,"O=C(Cc1cccc(O)c1)NNC(=O)c1c(O)cc(O)cc1O [compound 68, N′-[2-(3-hydroxyphenyl)acetyl]-2,4,6-trihydroxybenzohydrazide]",237 to 238 °C
4,CCCc1cc(O)cc(O)c1C(=O)NNC(=O)Cc1cccc(O)c1 [compound 69],198 to 200 °C
5,"O=C(Cc1cccc(O)c1)NNC(=O)c1c(O)cc(O)cc1Cl [compound 70, N′-[2-(3-hydroxyphenyl)acetyl]-2-chloro-4,6-dihydroxybenzohydrazide]",217 °C and 213 to 215 °C
6,O=C(Cc1cccc(O)c1)NNC(=O)c1ccc(O)cc1C(F)(F)F [compound 71],210 to 212 °C
7,O=C(Cc1cccc(O)c1)NNC(=O)c1c(O)cc(O)cc1F [compound 72],230 to 232 °C
8,O=C(Cc1cccc(O)c1)NNC(=O)c1c(O)cc(O)cc1Br [compound 73],259 °C
9,"O=C(Cc1cccc(O)c1)NNC(=O)c1ccc(O)c([N+](=O)[O-])c1 [compound 74, N′-[2-(3-hydroxyphenyl)acetyl]-4-hydroxy-3-nitrobenzohydrazide]",190 to 193 °C
10,Cc1cc(C(=O)NNC(=O)Cc2cccc(O)c2)ccc1O [compound 75],207 to 208 °C
11,CC(C)(C)c1cc(C(=O)NNC(=O)Cc2cccc(O)c2)ccc1O [compound 76],154 to 157 °C
12,O=C(Cc1cccc(O)c1)NNC(=O)c1ccc(O)c(Cl)c1 [compound 77],230 to 231 °C
13,"Nc1cc(C(=O)NNC(=O)Cc2cccc(O)c2)ccc1O [compound 78, N′-[2-(3-hydroxyphenyl)acetyl]-3-amino-4-hydroxybenzohydrazide]",264 to 265 °C
14,COc1cc(O)cc(Cl)c1C(=O)NNC(=O)Cc1cccc(O)c1 [compound 79],105 to 106 °C
15,O=C(Cc1cccc(O)c1)NNC(=O)c1cc(Cl)c(O)cc1O [compound 80],269 to 270 °C
16,O=C(Cc1cccc(O)c1)NNC(=O)c1ccc(O)c(Cl)c1O [compound 81],252 to 253 °C
17,Cc1c(O)ccc(C(=O)NNC(=O)Cc2cccc(O)c2)c1C [compound 82],251 °C
18,CCCCCc1cc(O)cc(O)c1C(=O)NNC(=O)Cc1cccc(O)c1 [compound 83],230 °C

# From patent US7767716B2, “Acyl hydrazines as kinase inhibitors, in particular for SGK” (Merck Patent GmbH, priority 2005, dated 2010)
